Carcinogen call and TD50 data for four compounds are collected here from PubChem BioAssay AID1745844 (Carcinogenic Potency Database (CPDB), 2022).

This data set deals with rodent lifetime carcinogenesis bioassay, tumor incidence TD50. The experiment in a line: carcinogenic potency in animals, long-term in vivo studies, CPDB compilation (AID 1745844).
Where [1] appears, read: rat, strain Fischer 344, females, by gavage, site: any site (literature study), lesion: several types, types named in the paper, dosed 103 weeks, study length 105 weeks.
Setting [2] is: rat, strain Fischer 344, males, by gavage, site: any site (literature study), lesion: several types, types named in the paper, dosed 103 weeks, study length 105 weeks.

As usually defined, the TD50 is the 50% point of the dose-response relation for the toxic effect studied.

Activity calls are given as the source filed them. No rule for the calls is given here.

As to `CC1=C(C(=O)OCCN(Cc2ccccc2)c2ccccc2)C(c2cccc([N+](=O)[O-])c2)C(P2(=O)OCC(C)(C)CO2)=C(C)N1` (stereo unspecified), the carcinogen call was “negative (inactive)” (mouse, strain B6C3F1, females, in feed, site: any site (literature study), lesion: several types, types named in the paper, dosed 104 weeks, study length 104 weeks); “negative (inactive)” (mouse, strain B6C3F1, females, in feed, site: lung, lesion: alveolar/bronchiolar adenoma, dosed 104 weeks, study length 104 weeks); “negative (inactive)” (mouse, strain B6C3F1, males, in feed, site: any site (literature study), lesion: several types, types named in the paper, dosed 104 weeks, study length 104 weeks); “negative (inactive)” (mouse, strain B6C3F1, males, in feed, site: liver, lesion: hepatocellular adenoma, dosed 104 weeks, study length 104 weeks); “negative (inactive)” (mouse, strain B6C3F1, males, in feed, site: liver, lesion: hepatocellular carcinoma, dosed 104 weeks, study length 104 weeks); “negative (inactive)” (mouse, strain B6C3F1, males, in feed, site: lung, lesion: alveolar/bronchiolar adenoma, dosed 104 weeks, study length 104 weeks). Besides, the carcinogen call runs as follows: (mouse, strain B6C3F1, males, in feed, site: lung, lesion: alveolar/bronchiolar carcinoma, dosed 104 weeks, study length 104 weeks) “negative (inactive)”; (rat, strain F344/DuCrj, females, in feed, site: liver, lesion: hepatocellular adenoma, dosed 104 weeks, study length 104 weeks) “negative (inactive)”; (rat, strain F344/DuCrj, males, in feed, site: any site (literature study), lesion: several types, types named in the paper, dosed 104 weeks, study length 104 weeks) “negative (inactive)”. For the same compound, the TD50 runs as follows: (mouse, strain B6C3F1, females, in feed, site: liver, lesion: hepatocellular adenoma, dosed 104 weeks, study length 104 weeks) 11500 mg/kg/day (inactive); (mouse, strain B6C3F1, females, in feed, site: liver, lesion: hepatocellular carcinoma, dosed 104 weeks, study length 104 weeks) 7430 mg/kg/day (inactive); (mouse, strain B6C3F1, females, in feed, site: lung, lesion: alveolar/bronchiolar carcinoma, dosed 104 weeks, study length 104 weeks) 12300 mg/kg/day (inactive); (mouse, strain B6C3F1, females, in feed, site: lymph node, lesion: malignant lymphoma, dosed 104 weeks, study length 104 weeks) 276 mg/kg/day (inactive); (rat, strain F344/DuCrj, females, in feed, site: any site (literature study), lesion: several types, types named in the paper, dosed 104 weeks, study length 104 weeks) 244 mg/kg/day (inactive); (rat, strain F344/DuCrj, males, in feed, site: liver, lesion: several types, types named in the paper, dosed 104 weeks, study length 104 weeks) 2310 mg/kg/day (inactive).
Take `CC1CCC(C(C)C)C(O)C1` (stereo unspecified): the carcinogen call is, setting by setting: (mouse, strain B6C3F1, females, in feed, site: any site (literature study), lesion: several types, types named in the paper, dosed 103 weeks, study length 104 weeks) “negative (inactive)”; (rat, strain Fischer 344, females, in feed, site: any site (literature study), lesion: several types, types named in the paper, dosed 103 weeks, study length 105 weeks) “negative (inactive)”. Besides, the TD50 (mouse, strain B6C3F1, females, in feed, site: liver, lesion: hepatocellular adenoma + hepatocellular carcinoma + neoplastic nodule, dosed 103 weeks, study length 104 weeks) worked out at 5190 mg/kg/day; the TD50 (mouse, strain B6C3F1, females, in feed, site: lung, lesion: alveolar/bronchiolar adenoma + alveolar/bronchiolar carcinoma, dosed 103 weeks, study length 104 weeks) was 3170 mg/kg/day; the TD50 (mouse, strain B6C3F1, males, in feed, site: any site (literature study), lesion: several types, types named in the paper, dosed 103 weeks, study length 104 weeks) is 2750 mg/kg/day (inactive); the TD50 (mouse, strain B6C3F1, males, in feed, site: liver, lesion: hepatocellular adenoma + hepatocellular carcinoma + neoplastic nodule, dosed 103 weeks, study length 104 weeks) amounted to 1960 mg/kg/day; the TD50 (rat, strain Fischer 344, males, in feed, site: any site (literature study), lesion: several types, types named in the paper, dosed 103 weeks, study length 105 weeks) is 1410 mg/kg/day (inactive); the TD50 (rat, strain Fischer 344, males, in feed, site: liver, lesion: hepatocellular adenoma + hepatocellular carcinoma + neoplastic nodule, dosed 103 weeks, study length 105 weeks) came to 5690 mg/kg/day.
In the case of `O=Cc1ccco1`, the carcinogen call runs as follows: (hamster, strain Syrian Golden, females, inhaled, site: liver, lesion: one or several types, types not named, dosed 52 weeks, study length 81 weeks) “negative (inactive)”; (hamster, strain Syrian Golden, females, inhaled, site: lung, lesion: one or several types, types not named, dosed 52 weeks, study length 81 weeks) “negative (inactive)”; (hamster, strain Syrian Golden, males, inhaled, site: liver, lesion: one or several types, types not named, dosed 52 weeks, study length 81 weeks) “negative (inactive)”; (hamster, strain Syrian Golden, males, inhaled, site: lung, lesion: one or several types, types not named, dosed 52 weeks, study length 81 weeks) “negative (inactive)”. Moreover, the TD50 runs as follows: (mouse, strain B6C3F1, females, by gavage, site: forestomach, lesion: squamous-cell papilloma, dosed 103 weeks, study length 104 weeks) 920 mg/kg/day; (mouse, strain B6C3F1, females, by gavage, site: liver, lesion: hepatocellular adenoma + hepatocellular carcinoma + neoplastic nodule, dosed 103 weeks, study length 104 weeks) 377 mg/kg/day; (mouse, strain B6C3F1, females, by gavage, site: liver, lesion: hepatocellular adenoma + hepatocellular carcinoma, dosed 103 weeks, study length 104 weeks) 377 mg/kg/day; (mouse, strain B6C3F1, females, by gavage, site: liver, lesion: hepatocellular adenoma, dosed 103 weeks, study length 104 weeks) 364 mg/kg/day; (mouse, strain B6C3F1, males, by gavage, site: any site (literature study), lesion: several types, types named in the paper, dosed 103 weeks, study length 104 weeks) 165 mg/kg/day; (mouse, strain B6C3F1, males, by gavage, site: kidney cortex, lesion: adenoma + carcinoma, dosed 103 weeks, study length 104 weeks) 1400 mg/kg/day. The TD50 is 135 mg/kg/day (mouse, strain B6C3F1, males, by gavage, site: liver, lesion: hepatocellular adenoma + hepatocellular carcinoma + neoplastic nodule, dosed 103 weeks, study length 104 weeks); 135 mg/kg/day (mouse, strain B6C3F1, males, by gavage, site: liver, lesion: hepatocellular adenoma + hepatocellular carcinoma, dosed 103 weeks, study length 104 weeks); 207 mg/kg/day (mouse, strain B6C3F1, males, by gavage, site: liver, lesion: hepatocellular adenoma, dosed 103 weeks, study length 104 weeks); 219 mg/kg/day (mouse, strain B6C3F1, males, by gavage, site: liver, lesion: hepatocellular carcinoma, dosed 103 weeks, study length 104 weeks); 662 mg/kg/day (mouse, strain B6C3F1, males, by gavage, site: lung, lesion: alveolar/bronchiolar adenoma + alveolar/bronchiolar carcinoma, dosed 103 weeks, study length 104 weeks); 169 mg/kg/day (mouse, strain B6C3F1, males, by gavage, site: subcutaneous tissue, lesion: fibrosarcoma + fibroma + sarcoma, dosed 103 weeks, study length 104 weeks). The TD50 by setting is: (mouse, strain B6C3F1, males, by gavage, site: subcutaneous tissue, lesion: fibrosarcoma + fibroma, dosed 103 weeks, study length 104 weeks) 190 mg/kg/day; (mouse, strain B6C3F1, males, by gavage, site: subcutaneous tissue, lesion: fibrosarcoma + sarcoma, dosed 103 weeks, study length 104 weeks) 187 mg/kg/day; (mouse, strain B6C3F1, males, by gavage, site: subcutaneous tissue, lesion: fibrosarcoma, dosed 103 weeks, study length 104 weeks) 212 mg/kg/day; under setting [1], 194 mg/kg/day (inactive); under setting [2], 150 mg/kg/day; (rat, strain Fischer 344, males, by gavage, site: liver, lesion: cholangiocarcinoma, dosed 103 weeks, study length 105 weeks) 683 mg/kg/day.
With `Nc1ccc(Cl)cc1`, the carcinogen call (mouse, strain B6C3F1, females, by gavage, site: any site (literature study), lesion: several types, types named in the paper, dosed 103 weeks, study length 105 weeks) is “negative (inactive)”. Moreover, the TD50 runs as follows: (mouse, strain B6C3F1, females, by gavage, site: liver, lesion: hepatocellular adenoma + hepatocellular carcinoma + neoplastic nodule, dosed 103 weeks, study length 105 weeks) 176 mg/kg/day; (mouse, strain B6C3F1, males, by gavage, site: all sites + liver, lesion: hemangiosarcoma + hepatocellular adenoma + hepatocellular carcinoma, dosed 103 weeks, study length 105 weeks) 56 mg/kg/day; (mouse, strain B6C3F1, males, by gavage, site: all sites, lesion: hemangiosarcoma, dosed 103 weeks, study length 105 weeks) 89.5 mg/kg/day; (mouse, strain B6C3F1, males, by gavage, site: any site (literature study), lesion: several types, types named in the paper, dosed 103 weeks, study length 105 weeks) 83.7 mg/kg/day; (mouse, strain B6C3F1, males, by gavage, site: liver, lesion: hepatocellular adenoma + hepatocellular carcinoma + neoplastic nodule, dosed 103 weeks, study length 105 weeks) 49.3 mg/kg/day; (mouse, strain B6C3F1, males, by gavage, site: liver, lesion: hepatocellular adenoma + hepatocellular carcinoma, dosed 103 weeks, study length 105 weeks) 49.3 mg/kg/day. For the same compound, the TD50 reads like this: (mouse, strain B6C3F1, males, by gavage, site: liver, lesion: hepatocellular carcinoma, dosed 103 weeks, study length 105 weeks) 33.8 mg/kg/day; (mouse, strain B6C3F1, males, by gavage, site: lung, lesion: alveolar/bronchiolar adenoma + alveolar/bronchiolar carcinoma, dosed 103 weeks, study length 105 weeks) 2780 mg/kg/day; (rat, strain Fischer 344, females, by gavage, site: adrenal medulla, lesion: pheochromocytoma, benign, dosed 103 weeks, study length 105 weeks) 105 mg/kg/day; under setting [1], 145 mg/kg/day; (rat, strain Fischer 344, females, by gavage, site: spleen, lesion: fibrosarcoma + osteosarcoma, dosed 103 weeks, study length 105 weeks) 232 mg/kg/day; (rat, strain Fischer 344, males, by gavage, site: adrenal medulla, lesion: pheochromocytoma benign, bilateral + pheochromocytoma, benign, dosed 103 weeks, study length 105 weeks) 14.8 mg/kg/day. Moreover, the TD50 (rat, strain Fischer 344, males, by gavage, site: adrenal medulla, lesion: pheochromocytoma benign, bilateral + pheochromocytoma, malignant + pheochromocytoma, benign, dosed 103 weeks, study length 105 weeks) is 13.3 mg/kg/day; the TD50 under setting [2] was determined as 20.8 mg/kg/day; the TD50 (rat, strain Fischer 344, males, by gavage, site: spleen, lesion: fibrosarcoma + fibroma, dosed 103 weeks, study length 105 weeks) amounted to 16.9 mg/kg/day; the TD50 (rat, strain Fischer 344, males, by gavage, site: spleen, lesion: fibrosarcoma + hemangiosarcoma + osteosarcoma, dosed 103 weeks, study length 105 weeks) is 7.62 mg/kg/day; the TD50 (rat, strain Fischer 344, males, by gavage, site: spleen, lesion: fibrosarcoma + osteosarcoma, dosed 103 weeks, study length 105 weeks) is 7.9 mg/kg/day; the TD50 (rat, strain Fischer 344, males, by gavage, site: spleen, lesion: fibrosarcoma, dosed 103 weeks, study length 105 weeks) was determined as 19 mg/kg/day. In addition, the TD50 runs as follows: (rat, strain Fischer 344, males, by gavage, site: spleen, lesion: hemangiosarcoma, dosed 103 weeks, study length 105 weeks) 107 mg/kg/day; (rat, strain Fischer 344, males, by gavage, site: spleen, lesion: osteosarcoma, dosed 103 weeks, study length 105 weeks) 15.5 mg/kg/day.
